Legend:
ERK8 = ERK8 (Homo sapiens, UniProt Q8TD08); experiment: Kinase panel, radiometric 33P filter binding; details: read-out: % activity remaining
Text: (§3) filter binding assay using 33P-g-ATPat the MRC PPU International Centre for Kinase Profiling, University of

JNK1 = JNK1 (Homo sapiens, UniProt P45983); experiment: Kinase panel, radiometric 33P filter binding; details: read-out: % activity remaining
Text: as §3

MARK1 = MARK1 (Homo sapiens, UniProt Q9P0L2); experiment: Kinase panel, radiometric 33P filter binding; details: read-out: % activity remaining
Text: as §3

MARK3 = MARK3 (Homo sapiens, UniProt P27448); experiment: Kinase panel, radiometric 33P filter binding; details: read-out: % activity remaining
Text: as §3

MST4 = MST4 (Homo sapiens, UniProt Q9P289); experiment: Kinase panel, radiometric 33P filter binding; details: read-out: % activity remaining
MST4, sequence (Q9P289 whole entry): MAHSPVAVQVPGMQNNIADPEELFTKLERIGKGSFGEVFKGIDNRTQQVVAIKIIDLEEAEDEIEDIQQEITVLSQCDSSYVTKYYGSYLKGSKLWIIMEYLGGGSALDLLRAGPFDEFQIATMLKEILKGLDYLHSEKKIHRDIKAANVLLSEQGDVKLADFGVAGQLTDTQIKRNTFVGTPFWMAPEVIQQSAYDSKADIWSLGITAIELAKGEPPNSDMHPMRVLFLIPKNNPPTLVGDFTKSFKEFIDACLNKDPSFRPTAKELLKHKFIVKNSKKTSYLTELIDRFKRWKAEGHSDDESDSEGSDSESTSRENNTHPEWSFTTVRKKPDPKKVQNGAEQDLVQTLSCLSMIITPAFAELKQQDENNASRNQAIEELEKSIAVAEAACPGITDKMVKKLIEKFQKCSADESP

PKCz = PKCz (Homo sapiens, UniProt Q05513); experiment: Kinase panel, radiometric 33P filter binding; details: read-out: % activity remaining
Text: as §3

MKK2 = MKK2 (Homo sapiens, UniProt P36507); experiment: Kinase panel, radiometric 33P filter binding; details: read-out: % activity remaining
PINK = PINK (Tribolium castaneum, UniProt D6WMX4); experiment: biochemical; details: read-out: % activity remaining
DGK zeta = DGK zeta (Homo sapiens, UniProt Q13574); experiment: Lipid kinase panel, ADP-Glo; assay type: biochemical
Text: (§1) Kinase % activity remaining s.d.
(§2) Choline Kinase alpha 101.6 3.2

DGK beta = DGK beta (Homo sapiens, UniProt Q9Y6T7); experiment: Lipid kinase panel, ADP-Glo; assay type: biochemical
Text: as §1, §2

SPHK1 = SPHK1 (Homo sapiens, UniProt Q9NYA1); experiment: Lipid kinase panel, ADP-Glo; assay type: biochemical; details: SPHK1, 10 μM
Text: as §1, §2

PI3KA E545K +P85 = PI3KA E545K +P85 (Homo sapiens, UniProt P42336, E545K); experiment: Lipid kinase panel, ADP-Glo; assay type: biochemical; details: PI3KA E545K +P85, 10 μM
Text: as §1, §2

Choline Kinase beta = Choline Kinase beta (Homo sapiens, UniProt Q9Y259); experiment: Lipid kinase panel, ADP-Glo; assay type: biochemical
Text: as §1, §2

PIK4Ca = PIK4Ca (Homo sapiens, UniProt P42356); experiment: Lipid kinase panel, ADP-Glo; assay type: biochemical
Text: as §1, §2

PI3K beta = PI3K beta (Homo sapiens, UniProt P42338); experiment: Lipid kinase panel, ADP-Glo; assay type: biochemical
Text: as §1, §2

PIP5K2a = PIP5K2a (Homo sapiens, UniProt P48426); experiment: Lipid kinase panel, ADP-Glo; assay type: biochemical
Text: as §1, §2

SPHK2 = SPHK2 (Homo sapiens, UniProt Q9NRA0); experiment: Lipid kinase panel, ADP-Glo; assay type: biochemical; details: SPHK2, 10 μM
Text: as §1, §2

PI3Ka E524K +P85 = experiment: Lipid kinase panel, ADP-Glo; assay type: biochemical; details: PI3Ka E524K +P85, 10 μM
Text: as §1, §2

PI3K gamma = PI3K gamma (Homo sapiens, UniProt P48736); experiment: Lipid kinase panel, ADP-Glo; assay type: biochemical
PI3K gamma, sequence (P48736 whole entry, species assumed): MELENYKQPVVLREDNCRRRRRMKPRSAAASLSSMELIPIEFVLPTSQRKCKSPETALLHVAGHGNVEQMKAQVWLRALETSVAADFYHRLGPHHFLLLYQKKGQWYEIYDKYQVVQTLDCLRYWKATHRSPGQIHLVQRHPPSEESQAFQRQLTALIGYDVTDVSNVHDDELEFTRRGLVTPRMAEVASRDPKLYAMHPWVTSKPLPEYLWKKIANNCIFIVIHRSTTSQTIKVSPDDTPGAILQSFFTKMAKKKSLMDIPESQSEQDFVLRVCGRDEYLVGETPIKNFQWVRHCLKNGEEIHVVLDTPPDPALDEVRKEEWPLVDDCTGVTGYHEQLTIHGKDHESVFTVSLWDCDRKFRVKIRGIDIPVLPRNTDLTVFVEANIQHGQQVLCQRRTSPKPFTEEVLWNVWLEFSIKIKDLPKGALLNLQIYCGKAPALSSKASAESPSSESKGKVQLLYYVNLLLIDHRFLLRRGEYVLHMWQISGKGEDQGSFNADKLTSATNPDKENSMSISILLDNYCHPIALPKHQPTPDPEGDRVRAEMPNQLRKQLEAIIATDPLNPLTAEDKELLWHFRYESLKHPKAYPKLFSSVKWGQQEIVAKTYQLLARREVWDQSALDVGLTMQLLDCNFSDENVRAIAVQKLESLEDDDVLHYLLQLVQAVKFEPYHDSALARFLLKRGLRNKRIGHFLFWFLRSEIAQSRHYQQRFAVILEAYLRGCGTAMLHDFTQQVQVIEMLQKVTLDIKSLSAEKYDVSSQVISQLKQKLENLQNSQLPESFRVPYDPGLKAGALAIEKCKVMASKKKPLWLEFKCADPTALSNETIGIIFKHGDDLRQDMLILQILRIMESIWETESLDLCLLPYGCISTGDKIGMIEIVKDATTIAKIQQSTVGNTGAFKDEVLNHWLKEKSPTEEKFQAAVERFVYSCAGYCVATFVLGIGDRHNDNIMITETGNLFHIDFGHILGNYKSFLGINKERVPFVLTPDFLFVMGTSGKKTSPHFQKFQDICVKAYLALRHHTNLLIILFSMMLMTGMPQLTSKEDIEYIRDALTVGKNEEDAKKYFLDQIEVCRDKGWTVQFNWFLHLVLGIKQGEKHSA
Text: as §1, §2

ULK2 = ULK2 (Homo sapiens, UniProt Q8IYT8); experiment: Kinase panel, radiometric 33P filter binding; details: read-out: % activity remaining
Text: as §3

MAPKAP-K3 = MAPKAP-K3 (Homo sapiens, UniProt Q16644); experiment: Kinase panel, radiometric 33P filter binding; details: read-out: % activity remaining
PIM1 = PIM1 (Homo sapiens, UniProt P11309); experiment: Kinase panel, radiometric 33P filter binding; details: read-out: % activity remaining
Text: as §3

ERK1 = ERK1 (Homo sapiens, UniProt P27361); experiment: Kinase panel, radiometric 33P filter binding; details: read-out: % activity remaining
JNK2 = JNK2 (Homo sapiens, UniProt P45984); experiment: Kinase panel, radiometric 33P filter binding; details: read-out: % activity remaining
JNK2, sequence (P45984 whole entry): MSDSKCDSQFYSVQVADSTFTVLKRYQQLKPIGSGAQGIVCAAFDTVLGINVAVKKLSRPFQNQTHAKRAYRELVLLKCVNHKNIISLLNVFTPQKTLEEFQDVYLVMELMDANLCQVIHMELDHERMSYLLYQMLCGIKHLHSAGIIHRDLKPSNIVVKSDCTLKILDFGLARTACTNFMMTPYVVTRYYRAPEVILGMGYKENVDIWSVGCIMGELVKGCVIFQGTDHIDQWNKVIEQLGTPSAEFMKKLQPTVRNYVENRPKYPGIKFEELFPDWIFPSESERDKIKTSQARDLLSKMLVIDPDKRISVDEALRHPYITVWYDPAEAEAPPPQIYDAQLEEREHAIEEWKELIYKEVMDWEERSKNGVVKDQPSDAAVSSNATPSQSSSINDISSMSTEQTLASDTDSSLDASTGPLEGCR
Text: as §3

MLK3 = MLK3 (Homo sapiens, UniProt Q16584); experiment: Kinase panel, radiometric 33P filter binding; details: read-out: % activity remaining
MLK3, sequence (Q16584 whole entry): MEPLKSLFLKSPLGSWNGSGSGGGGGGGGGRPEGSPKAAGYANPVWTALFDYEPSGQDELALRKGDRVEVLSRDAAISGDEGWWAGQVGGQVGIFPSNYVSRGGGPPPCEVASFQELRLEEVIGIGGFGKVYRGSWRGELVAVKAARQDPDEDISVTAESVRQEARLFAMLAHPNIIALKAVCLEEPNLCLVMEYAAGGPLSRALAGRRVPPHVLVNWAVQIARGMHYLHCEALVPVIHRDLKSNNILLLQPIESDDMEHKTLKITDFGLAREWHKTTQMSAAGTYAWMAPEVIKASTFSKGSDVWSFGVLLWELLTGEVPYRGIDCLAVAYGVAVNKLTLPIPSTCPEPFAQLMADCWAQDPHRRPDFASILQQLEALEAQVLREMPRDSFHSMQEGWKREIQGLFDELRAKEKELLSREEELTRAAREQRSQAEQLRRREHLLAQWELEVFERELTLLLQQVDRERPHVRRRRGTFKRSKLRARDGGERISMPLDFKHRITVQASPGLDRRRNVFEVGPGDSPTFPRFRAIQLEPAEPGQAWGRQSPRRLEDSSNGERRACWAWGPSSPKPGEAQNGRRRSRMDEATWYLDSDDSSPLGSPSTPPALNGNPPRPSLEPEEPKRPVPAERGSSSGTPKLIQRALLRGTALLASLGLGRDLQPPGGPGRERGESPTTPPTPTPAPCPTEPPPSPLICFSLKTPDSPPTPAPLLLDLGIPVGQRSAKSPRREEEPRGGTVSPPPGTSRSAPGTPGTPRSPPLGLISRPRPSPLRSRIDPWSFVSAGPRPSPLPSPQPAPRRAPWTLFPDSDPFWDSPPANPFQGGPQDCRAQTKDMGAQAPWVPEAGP
Text: as §3

TIE2 = TIE2 (Homo sapiens, UniProt Q02763); experiment: Kinase panel, radiometric 33P filter binding; details: read-out: % activity remaining
TIE2, sequence (Q02763 23-1124): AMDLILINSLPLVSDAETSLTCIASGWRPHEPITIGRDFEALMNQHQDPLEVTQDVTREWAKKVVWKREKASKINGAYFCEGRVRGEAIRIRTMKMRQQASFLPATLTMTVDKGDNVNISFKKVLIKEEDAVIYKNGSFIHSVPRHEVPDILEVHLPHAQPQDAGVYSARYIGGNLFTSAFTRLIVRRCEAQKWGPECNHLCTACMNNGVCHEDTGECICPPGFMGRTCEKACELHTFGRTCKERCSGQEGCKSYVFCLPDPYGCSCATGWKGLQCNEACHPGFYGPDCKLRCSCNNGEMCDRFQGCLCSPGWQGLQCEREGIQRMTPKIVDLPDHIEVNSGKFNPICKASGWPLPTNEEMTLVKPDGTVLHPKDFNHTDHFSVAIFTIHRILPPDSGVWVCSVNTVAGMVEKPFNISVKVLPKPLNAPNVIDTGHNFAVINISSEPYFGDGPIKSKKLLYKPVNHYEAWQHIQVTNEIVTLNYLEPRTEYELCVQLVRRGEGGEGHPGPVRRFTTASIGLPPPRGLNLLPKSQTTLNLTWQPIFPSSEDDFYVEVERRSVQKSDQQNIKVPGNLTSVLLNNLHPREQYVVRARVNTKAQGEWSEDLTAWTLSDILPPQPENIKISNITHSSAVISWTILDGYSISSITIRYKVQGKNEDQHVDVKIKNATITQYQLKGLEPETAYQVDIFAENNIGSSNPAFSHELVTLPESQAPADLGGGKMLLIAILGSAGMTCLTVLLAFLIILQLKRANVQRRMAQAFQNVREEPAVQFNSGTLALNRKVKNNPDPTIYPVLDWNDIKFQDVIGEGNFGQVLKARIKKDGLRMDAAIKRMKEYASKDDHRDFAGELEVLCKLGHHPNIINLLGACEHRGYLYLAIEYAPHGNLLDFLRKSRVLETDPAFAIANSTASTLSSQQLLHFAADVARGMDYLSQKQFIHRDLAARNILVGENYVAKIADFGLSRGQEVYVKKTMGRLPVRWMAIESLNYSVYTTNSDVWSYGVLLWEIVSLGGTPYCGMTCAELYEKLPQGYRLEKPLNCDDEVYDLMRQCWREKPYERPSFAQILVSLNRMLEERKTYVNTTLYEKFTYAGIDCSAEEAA

MPSK1 = MPSK1 (Homo sapiens, UniProt O75716); experiment: Kinase panel, radiometric 33P filter binding; details: read-out: % activity remaining
Text: as §3

RIPK2 = RIPK2 (Homo sapiens, UniProt O43353); experiment: Kinase panel, radiometric 33P filter binding; details: read-out: % activity remaining
MST2 = MST2 (Homo sapiens, UniProt Q13188); experiment: Kinase panel, radiometric 33P filter binding; details: read-out: % activity remaining
MST2, sequence (Q13188 whole entry): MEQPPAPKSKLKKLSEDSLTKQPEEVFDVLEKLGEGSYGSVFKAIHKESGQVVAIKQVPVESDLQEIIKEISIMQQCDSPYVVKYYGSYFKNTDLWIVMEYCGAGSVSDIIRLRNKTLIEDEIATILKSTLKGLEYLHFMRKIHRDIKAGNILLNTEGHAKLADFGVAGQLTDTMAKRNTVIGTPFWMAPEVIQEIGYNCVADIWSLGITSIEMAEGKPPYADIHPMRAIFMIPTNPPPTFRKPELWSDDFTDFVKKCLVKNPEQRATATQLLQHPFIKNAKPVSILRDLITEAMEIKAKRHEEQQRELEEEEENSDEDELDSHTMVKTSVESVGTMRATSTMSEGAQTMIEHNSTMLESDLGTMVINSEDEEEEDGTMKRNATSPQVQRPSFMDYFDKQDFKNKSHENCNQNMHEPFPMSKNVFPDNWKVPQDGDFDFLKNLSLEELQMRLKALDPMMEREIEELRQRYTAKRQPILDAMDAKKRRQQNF

NUAK1 = NUAK1 (Homo sapiens, UniProt O60285); experiment: Kinase panel, radiometric 33P filter binding; details: read-out: % activity remaining
Text: as §3

PKCa = PKCa (Homo sapiens, UniProt P17252); experiment: Kinase panel, radiometric 33P filter binding; details: read-out: % activity remaining
Text: as §3

EPH-B1 = EPH-B1 (Homo sapiens, UniProt P54762); experiment: Kinase panel, radiometric 33P filter binding; details: read-out: % activity remaining
Text: as §3

MNK2 = MNK2 (Homo sapiens, UniProt Q9HBH9); experiment: Kinase panel, radiometric 33P filter binding; details: read-out: % activity remaining
DAPK1 = DAPK1 (Homo sapiens, UniProt P53355); experiment: Kinase panel, radiometric 33P filter binding; details: read-out: % activity remaining
Text: as §3

EPH-B4 = EPH-B4 (Homo sapiens, UniProt P54760); experiment: Kinase panel, radiometric 33P filter binding; details: read-out: % activity remaining
Text: as §3

CSK = CSK (Homo sapiens, UniProt P41240); experiment: Kinase panel, radiometric 33P filter binding; details: read-out: % activity remaining
Src = Src (Homo sapiens, UniProt P12931); experiment: Kinase panel, radiometric 33P filter binding; details: read-out: % activity remaining
Src, sequence (P12931 whole entry): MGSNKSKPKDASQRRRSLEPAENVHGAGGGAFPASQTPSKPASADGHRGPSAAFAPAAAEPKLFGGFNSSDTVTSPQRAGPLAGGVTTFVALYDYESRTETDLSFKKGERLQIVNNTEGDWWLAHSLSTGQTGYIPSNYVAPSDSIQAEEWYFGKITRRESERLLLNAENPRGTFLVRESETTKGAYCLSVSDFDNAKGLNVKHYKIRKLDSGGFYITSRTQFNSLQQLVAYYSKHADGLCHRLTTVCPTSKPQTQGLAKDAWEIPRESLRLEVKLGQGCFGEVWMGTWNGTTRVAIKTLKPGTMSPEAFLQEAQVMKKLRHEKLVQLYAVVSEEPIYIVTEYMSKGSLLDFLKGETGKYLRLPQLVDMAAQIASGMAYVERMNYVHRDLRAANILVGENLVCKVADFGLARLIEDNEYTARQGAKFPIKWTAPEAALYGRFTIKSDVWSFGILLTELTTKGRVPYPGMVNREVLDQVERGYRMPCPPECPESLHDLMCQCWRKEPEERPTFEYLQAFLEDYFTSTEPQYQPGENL

PAK6 = PAK6 (Homo sapiens, UniProt Q9NQU5); experiment: Kinase panel, radiometric 33P filter binding; details: read-out: % activity remaining
CK1δ = CK1δ (Homo sapiens, UniProt P48730); experiment: Kinase panel, radiometric 33P filter binding; details: read-out: % activity remaining
Text: as §3

Molecule CC(C)c1ccccc1-c1nc(NCc2ccccn2)c2c(ccn2C)n1 [Compound 40] has a remaining activity at 10 µM (ERK8) of 109%, a remaining activity at 10 µM (JNK1) of 86% and a remaining activity at 10 µM (MARK1) of 88%. The remaining activity at 10 µM (MARK3) was 101%, the remaining activity at 10 µM (MST4) was 110% and the remaining activity at 10 µM (PKCz) was 111%. It also gave a remaining activity at 10 µM (MKK2) of 115%, a remaining activity at 10 µM (PINK) of 125% and a remaining activity at 10 µM (DGK zeta) of 106%. It also gave a remaining activity at 10 µM (DGK beta) of 102%, a remaining activity at 10 µM (SPHK1) of 91.8% and a remaining activity at 10 µM (PI3KA E545K +P85) of 91.7%. It also gave a remaining activity at 10 µM (Choline Kinase beta) of 97.3%, a remaining activity at 10 µM (PIK4Ca) of 81.1% and a remaining activity at 10 µM (PI3K beta) of 111%. For the same molecule, the remaining activity at 10 µM (PIP5K2a) was 100%, the remaining activity at 10 µM (SPHK2) was 83.8% and the “% activity remaining” value (PI3Ka E524K +P85) was 102.0%. It also gave a remaining activity at 10 µM (PI3K gamma) of 103%, a remaining activity at 10 µM (ULK2) of 91% and a remaining activity at 10 µM (MAPKAP-K3) of 102%. It also gave a remaining activity at 10 µM (PIM1) of 102%, a remaining activity at 10 µM (ERK1) of 111% and a remaining activity at 10 µM (JNK2) of 110%. For the same molecule, the remaining activity at 10 µM (MLK3) was 90%, the remaining activity at 10 µM (TIE2) was 89% and the remaining activity at 10 µM (MPSK1) was 106%. The remaining activity at 10 µM (RIPK2) was 92%, the remaining activity at 10 µM (MST2) was 115% and the remaining activity at 10 µM (NUAK1) was 88%. For the same molecule, the remaining activity at 10 µM (PKCa) was 118%, the remaining activity at 10 µM (EPH-B1) was 95% and the remaining activity at 10 µM (MNK2) was 117%. It also gave a remaining activity at 10 µM (DAPK1) of 105%, a remaining activity at 10 µM (EPH-B4) of 120% and a remaining activity at 10 µM (CSK) of 94%. The remaining activity at 10 µM (Src) was 135%, the remaining activity at 10 µM (PAK6) was 95% and the remaining activity at 10 µM (CK1δ) was 100%.
